Data set [1] has as its system HDACs (HeLa cell nuclear extracts). The experiment in a line: HDAC enzymatic activity, Biomol Color de Lys system. Format: biochemical. Conditions: 1 hour, 25° C. The procedure:
(E) an In Vitro Assay which Determines the Ability of a Test Compound to Inhibit HDAC Enzymatic Activity.
HDAC inhibitory activity was assessed using the Biomol Color de Lys system (AK-500, Biomol, Plymouth Meeting, Pa.). Briefly, HeLa cell nuclear extracts were used as a source of HDACs. Different concentrations of test compounds were serially diluted in dimethylsulphoxide (DMSO) and added to HeLa cell nuclear extracts in the presence of a colorimetric artificial substrate. Final assay condition contained 50 mM Tris/Cl, pH 8.0, 137 mM NaCl, 2.7 mM KCl and 1 mM MgCl2. Reactions were carried in room temperature (25° C.) for 1 hour before addition of developer for termination. Relative enzyme activity was measured in the WALLAC Victor II 1420 microplate reader as fluorescence intensity (excitation: 350-380 nm; emission: 440-460 nm). Data were analyzed using GraphPad Prism (v4.0a) with a sigmoidal dose response curve fitting for IC50 calculation.

The next data set concerns the target T1, PI3Kα (p110α/p85α) (Homo sapiens, UniProt P42336).
T1 construct: GST (N); made in house; host or cells: Baculovirus-infected Sf9 cells
The experiment in a line: PI3Kα ADP-Glo assay. Format: biochemical. As to conditions: 20 μM PIP2, 10 μM ATP, 30 minutes. The procedure: (A) an In Vitro Assay which Determines the Ability of a Test Compound to Inhibit PI3Kα.
Activity of PI3Kα was measured using ADP-Glo assay from Promega. PI3Kα, a complex of N-terminal GST-tagged recombinant full-length human p110α (GenBank, Accession No. U79143) and N-terminal His tagged recombinant full length human p85a (GenBank Accession No. XM—043865) were co-expressed in a Baculovirus infected Sf9 cell expression system. The ADP-Glo assay was performed to measure the amount of ADP generated from ATP hydrolysis coupled with PIP2 phosphorylation by the purified recombinant PI3Kα (p110α/p85α). PI3Kα was incubated with 20 μM PIP2 substrate in the reaction buffer (50 mM HEPES, pH 7.4, 150 mM NaCl, 5 mM MgCl2, 1 mM DTT, 3 uM Naorthovanadate, 10 μM ATP and 0.5% DMSO) for 30 minutes at room temperature. The ADP generated was then detected by ADP-Glo assay from Promega, a luminescent ADP detection assay. The ADP-Glo assay is performed in two steps; first, after the kinase reaction, ADP-Glo Reagent is added to terminate the kinase reaction and deplete the remaining ATP. Second, the Kinase Detection Reagent is added to simultaneously convert ADP to ATP and allow the newly synthesized ATP to be measured using a luciferase/luciferin reaction.

T1 sequence (P42336 whole entry): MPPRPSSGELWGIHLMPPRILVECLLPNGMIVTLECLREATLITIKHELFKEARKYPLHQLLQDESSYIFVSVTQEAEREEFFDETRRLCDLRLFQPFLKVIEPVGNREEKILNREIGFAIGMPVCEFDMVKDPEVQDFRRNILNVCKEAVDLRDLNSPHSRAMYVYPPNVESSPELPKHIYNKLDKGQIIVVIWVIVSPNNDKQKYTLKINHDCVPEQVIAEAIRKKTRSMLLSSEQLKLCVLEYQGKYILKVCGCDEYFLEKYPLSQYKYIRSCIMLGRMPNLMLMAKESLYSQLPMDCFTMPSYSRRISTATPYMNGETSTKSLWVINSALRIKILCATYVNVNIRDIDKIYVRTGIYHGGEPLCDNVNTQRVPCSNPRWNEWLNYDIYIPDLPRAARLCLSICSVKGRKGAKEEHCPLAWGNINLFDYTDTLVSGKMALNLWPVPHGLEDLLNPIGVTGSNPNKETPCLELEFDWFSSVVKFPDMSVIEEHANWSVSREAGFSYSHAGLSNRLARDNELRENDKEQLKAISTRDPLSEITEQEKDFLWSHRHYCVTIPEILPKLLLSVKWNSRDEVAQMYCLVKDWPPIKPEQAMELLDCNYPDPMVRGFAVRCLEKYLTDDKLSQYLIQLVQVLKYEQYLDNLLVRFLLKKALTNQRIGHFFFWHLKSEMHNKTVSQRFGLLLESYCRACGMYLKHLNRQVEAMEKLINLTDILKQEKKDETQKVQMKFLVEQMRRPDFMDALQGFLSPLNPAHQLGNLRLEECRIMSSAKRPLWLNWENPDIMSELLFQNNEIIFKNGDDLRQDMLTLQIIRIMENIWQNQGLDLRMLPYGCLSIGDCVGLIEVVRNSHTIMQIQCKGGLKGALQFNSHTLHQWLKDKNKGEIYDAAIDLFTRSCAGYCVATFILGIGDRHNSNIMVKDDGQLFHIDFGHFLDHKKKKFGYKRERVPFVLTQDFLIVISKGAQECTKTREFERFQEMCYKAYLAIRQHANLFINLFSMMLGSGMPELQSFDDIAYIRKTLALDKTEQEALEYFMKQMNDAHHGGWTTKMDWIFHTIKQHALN
T1 sequence (P27986 whole entry partner): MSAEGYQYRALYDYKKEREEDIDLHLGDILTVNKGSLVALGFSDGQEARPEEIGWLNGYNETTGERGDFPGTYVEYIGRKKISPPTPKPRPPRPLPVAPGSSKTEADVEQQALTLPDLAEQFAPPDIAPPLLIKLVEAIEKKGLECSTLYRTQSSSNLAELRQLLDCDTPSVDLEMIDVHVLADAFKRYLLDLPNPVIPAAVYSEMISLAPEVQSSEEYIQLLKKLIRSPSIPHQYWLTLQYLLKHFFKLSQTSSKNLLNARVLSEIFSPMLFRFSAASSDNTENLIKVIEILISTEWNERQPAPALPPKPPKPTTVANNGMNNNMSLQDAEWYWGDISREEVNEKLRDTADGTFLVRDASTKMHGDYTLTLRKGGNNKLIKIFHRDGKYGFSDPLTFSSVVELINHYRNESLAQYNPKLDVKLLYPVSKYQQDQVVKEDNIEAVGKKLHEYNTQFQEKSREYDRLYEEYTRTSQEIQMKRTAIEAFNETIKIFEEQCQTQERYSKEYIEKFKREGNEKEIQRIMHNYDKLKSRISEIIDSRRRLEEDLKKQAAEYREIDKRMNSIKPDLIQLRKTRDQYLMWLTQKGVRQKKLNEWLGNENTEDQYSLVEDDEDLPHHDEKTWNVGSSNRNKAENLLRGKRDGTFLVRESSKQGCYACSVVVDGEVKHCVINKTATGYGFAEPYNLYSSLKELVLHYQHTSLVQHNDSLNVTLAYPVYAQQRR

The compound `CS(=O)(=O)N1CCN(Cc2cc3nc(-c4cccc5c4cnn5CCCCC(=O)NO)nc(N4CCOCC4)c3s2)CC1` [Compound 3, N-hydroxy-5-(4-(6-((4-(methylsulfonyl)piperazin-1-yl)methyl)-4-morpholinothieno[3,2-d]pyrimidin-2-yl)-1H-indazol-1-yl)pentanamide] displayed a melting point of 139 to 143 °C.
Turning to `CS(=O)(=O)N1CCN(Cc2cc3nc(-c4cccc5nn(CCCCC(=O)NO)cc45)nc(N4CCOCC4)c3s2)CC1` [Compound 7, N-hydroxy-5-(4-(6-((4-(methylsulfonyl)piperazin-1-yl)methyl)-4-morpholinothieno[3,2-d]pyrimidin-2-yl)-2H-indazol-2-yl)pentanamide], the melting point was in the range of 146 to 169 °C. This compound gave an IC50 in data set [1] of 100 to 1000 nM. Besides, the IC50 against PI3Kα (p110α/p85α) lay within 100 to 1000 nM.
Compound `CS(=O)(=O)N1CCN(Cc2cc3nc(-c4cccc5nn(CCCCCC(=O)NO)cc45)nc(N4CCOCC4)c3s2)CC1` [Compound 8, N-hydroxy-6-(4-(6-((4-(methylsulfonyl)piperazin-1-yl)methyl)-4-morpholinothieno[3,2-d]pyrimidin-2-yl)-2H-indazol-2-yl)hexanamide] came in with a melting point of 124 to 125 °C. In addition, the IC50 in data set [1] is under 100 nM. Besides, the IC50 against PI3Kα (p110α/p85α) is over 10000 nM.
`CS(=O)(=O)N1CCN(Cc2cc3nc(-c4cccc5nn(CCCCCCC(=O)NO)cc45)nc(N4CCOCC4)c3s2)CC1` [Compound 9, N-hydroxy-7-(4-(6-((4-(methylsulfonyl)piperazin-1-yl)methyl)-4-morpholinothieno[3,2-d]pyrimidin-2-yl)-2H-indazol-2-yl)heptanamide] yielded a melting point of 123 to 126 °C. The IC50 in data set [1] is under 100 nM. The compound also gave an IC50 on PI3Kα (p110α/p85α) of over 10000 nM.
`O=C(CCCCN1CCN(Cc2cc3nc(-c4cccc5[nH]ncc45)nc(N4CCOCC4)c3s2)CC1)NO` [Compound 11, 5-(4-((2-(1H-indazol-4-yl)-4-morpholinothieno[3,2-d]pyrimidin-6-yl)methyl)piperazin-1-yl)-N-hydroxypentanamide] registered a melting point of 125 to 127 °C. In data set [1], this compound had an IC50 of 1000 to 10000 nM.
`O=C(CCCCCN1CCN(Cc2cc3nc(-c4cccc5[nH]ncc45)nc(N4CCOCC4)c3s2)CC1)NO` [Compound 12]: the melting point was in the range of 123 to 124 °C. Moreover, the IC50 in data set [1] is 100 to 1000 nM. The compound further registered an IC50 against PI3Kα (p110α/p85α) of under 100 nM.
For `O=C(CCCCCCN1CCN(Cc2cc3nc(-c4cccc5[nH]ncc45)nc(N4CCOCC4)c3s2)CC1)NO` [Compound 13, 7-(4-((2-(1H-indazol-4-yl)-4-morpholinothieno[3,2-d]pyrimidin-6-yl)methyl)piperazin-1-yl)-N-hydroxyheptanamide], the melting point was in the range of 119 to 122 °C. In addition, in data set [1], the IC50 is 100 to 1000 nM. Also, the IC50 against PI3Kα (p110α/p85α) lay in the range of 100 to 1000 nM.
`CS(=O)(=O)N1CCN(Cc2cc3nc(-c4cccc5[nH]ncc45)nc(N4CCN(CCCCC(=O)NO)CC4)c3s2)CC1` [Compound 30, 5-(4-(2-(1H-indazol-4-yl)-6-((4-(methylsulfonyl)piperazin-1-yl)methyl)thieno[3,2-d]pyrimidin-4-yl)piperazin-1-yl)-N-hydroxypentanamide] yielded a melting point of 142 to 145 °C. The IC50 in data set [1] lay within 100 to 1000 nM. On PI3Kα (p110α/p85α), this compound returned an IC50 of over 10000 nM.
`Nc1ccc(-c2nc(N3CCOCC3)c3sc(CN(CCO)c4ncc(C(=O)NO)cn4)cc3n2)cc1F` [Compound 277]: the IC50 (in data set [1]; against PI3Kα (p110α/p85α)) was under 100 nM each time.
`CC(C)C(=O)Nc1ccc(-c2nc(N3CCOCC3)c3sc(CN(C)c4ncc(C(=O)NO)cn4)cc3n2)cc1` [Compound 286]: the results for the IC50 (in data set [1]; against PI3Kα (p110α/p85α)) were under 100 nM and 100 to 1000 nM, respectively.
Regarding `CC(C)OC(=O)Nc1ccc(-c2nc(N3CCOCC3)c3sc(CN(C)c4ncc(C(=O)NO)cn4)cc3n2)cc1` [Compound 287], the IC50 was under 100 nM in data set [1] and over 10000 nM on PI3Kα (p110α/p85α).
Take `CN(Cc1cc2nc(-c3cccc(NS(C)(=O)=O)c3)nc(N3CCOCC3)c2s1)c1ncc(C(=O)NO)cn1` [Compound 288]: the IC50 is under 100 nM in data set [1] and over 10000 nM against PI3Kα (p110α/p85α).
The like results for `CN(Cc1cc2nc(-c3cccc(S(=O)(=O)CCO)c3)nc(N3CCOCC3)c2s1)c1ncc(C(=O)NO)cn1` [Compound 291] were, in that order, under 100 nM and over 10000 nM.
Regarding `C/C(=N/O)c1ccc(F)c(-c2nc(N3CCOCC3)c3sc(CN(C)c4ncc(C(=O)NO)cn4)cc3n2)c1` [Compound 298], the IC50 is under 100 nM in data set [1] and 100 to 1000 nM against PI3Kα (p110α/p85α).
Taken in the same sequence, the figures for `C/C(=N/O)c1cccc(-c2nc(N3CCOCC3)c3sc(CN(C)c4ncc(C(=O)NO)cn4)cc3n2)c1` [Compound 299] were under 100 nM and 100 to 1000 nM.
Consider `CC(=O)c1cccc(-c2nc(N3CCOCC3)c3sc(CN(C)c4ncc(C(=O)NO)cn4)cc3n2)c1` [Compound 300], for which the IC50 in data set [1] was under 100 nM; on PI3Kα (p110α/p85α), 100 to 1000 nM.
For `CN(Cc1cc2nc(-c3cccc(C(C)(C)O)c3)nc(N3CCOCC3)c2s1)c1ncc(C(=O)NO)cn1` [Compound 302], the results for the IC50 (in data set [1]; at PI3Kα (p110α/p85α)) were under 100 nM and over 10000 nM, respectively.
In the case of `CN(Cc1cc2nc(-c3cccc(C(=O)O)c3)nc(N3CCOCC3)c2s1)c1ncc(C(=O)NO)cn1` [Compound 303], the values for the IC50 (in data set [1]; on PI3Kα (p110α/p85α)) were under 100 nM and 100 to 1000 nM, respectively.
With `CN(Cc1cc2nc(-c3cccc(C(=O)OC(C)(C)C)c3)nc(N3CCOCC3)c2s1)c1ncc(C(=O)NO)cn1` [Compound 304], the concentration for half-maximal inhibition (IC50) is under 100 nM in data set [1] and 1000 to 10000 nM on PI3Kα (p110α/p85α).
Taken in the same sequence, the figures for `CN(Cc1cc2nc(-c3cccc(S(N)(=O)=O)c3)nc(N3CCOCC3)c2s1)c1ncc(C(=O)NO)cn1` [Compound 305] were under 100 nM and 100 to 1000 nM.
`CN(Cc1cc2nc(-c3cccc(CCO)c3)nc(N3CCOCC3)c2s1)c1ncc(C(=O)NO)cn1` [Compound 306]: the IC50 in data set [1] was under 100 nM; against PI3Kα (p110α/p85α) it was 100 to 1000 nM.
Taken in the same sequence, the figures for `Nc1ccc(-c2nc(N3CCOCC3)c3sc(S(=O)(=O)NCC4CCN(c5ncc(C(=O)NO)cn5)CC4)cc3n2)cc1` [Compound 309] were 100 to 1000 nM and 100 to 1000 nM.
Taken in the same sequence, the figures for `Cc1ncc(-c2nc(N3CCOCC3)c3sc(CN(CCO)c4ncc(C(=O)NO)cn4)cc3n2)s1` [Compound 312] were under 100 nM and 100 to 1000 nM.
On to `CN(Cc1cc2nc(-c3cccc4[nH]c(=S)[nH]c34)nc(N3CCOCC3)c2s1)c1ncc(C(=O)NO)cn1` [Compound 315], for which the IC50 (in data set [1]; on PI3Kα (p110α/p85α)) was under 100 nM throughout.
Regarding `CN(Cc1cc2nc(-c3cccc4[nH]c(=O)sc34)nc(N3CCOCC3)c2s1)c1ncc(C(=O)NO)cn1` [Compound 317], the IC50 (in data set [1]; against PI3Kα (p110α/p85α)) was under 100 nM each time.
Regarding `CCCc1nc2cc(/C=C/C(=O)NO)ccc2n1CCN(C)Cc1cc2nc(-c3ccc(NC)nc3)nc(N3CCOCC3)c2s1` [Compound 322], the IC50 (in data set [1]; against PI3Kα (p110α/p85α)) was 100 to 1000 nM each time.
Turning to `CCCc1nc2cc(/C=C/C(=O)NO)ccc2n1CCNCc1cc2nc(-c3ccc(NC)nc3)nc(N3CCOCC3)c2s1` [Compound 323], the values for the IC50 (in data set [1]; against PI3Kα (p110α/p85α)) were 100 to 1000 nM and under 100 nM, respectively.
Taken in the same sequence, the figures for `CCCc1nc2cc(/C=C/C(=O)NO)ccc2n1CCN(C)Cc1cc2nc(-c3ccc(N)cc3)nc(N3CCOCC3)c2s1` [Compound 324] were 100 to 1000 nM and 100 to 1000 nM.
Taken in the same sequence, the figures for `CCCc1nc2cc(/C=C/C(=O)NO)ccc2n1CCNCc1cc2nc(-c3ccc(N)cc3)nc(N3CCOCC3)c2s1` [Compound 325] were 100 to 1000 nM and 1000 to 10000 nM.
The like results for `Cn1c(CNCc2cc3nc(-c4ccc(N)cc4)nc(N4CCOCC4)c3s2)nc2cc(/C=C/C(=O)NO)ccc21` [Compound 326] were, in that order, 100 to 1000 nM and 100 to 1000 nM.
Regarding `CN(Cc1cc2nc(-c3ccc(N)cc3)nc(N3CCOCC3)c2s1)Cc1nc2cc(/C=C/C(=O)NO)ccc2n1C` [Compound 327], the IC50 in data set [1] was 100 to 1000 nM; at PI3Kα (p110α/p85α) it was 1000 to 10000 nM.
The like results for `CNc1ccc(-c2nc(N3CCOCC3)c3sc(CNCc4nc5cc(/C=C/C(=O)NO)ccc5n4C)cc3n2)cn1` [Compound 328] were, in that order, 100 to 1000 nM and under 100 nM.
Regarding `CNc1ccc(-c2nc(N3CCOCC3)c3sc(CN(C)Cc4nc5cc(/C=C/C(=O)NO)ccc5n4C)cc3n2)cn1` [Compound 329], the IC50 in data set [1] was 100 to 1000 nM; against PI3Kα (p110α/p85α) it was under 100 nM.

For the origin of these results see patent US20130102595A1 (Curis, Inc., priority 2011, published 2013).
